melting point | SMILES
95 to 96 °C | COC(=O)CCCON1CCNC1=Nc1c(Cl)cccc1Cl
258 to 260 °C | O=C(O)C1c2ccccc2COc2ccc(C(F)(F)F)cc21 (stereo not given)
65 to 66 °C | O=CC1(Br)C2CCC(CC2)C1c1ccccc1 (stereo not given)
194 to 196 °C | Cc1cc(C)c2ncc(NC(=O)Nc3cc(C(C)C)c(O)c(C(C)C)c3)c(-c3ccccc3Cl)c2c1
149 to 153 °C | OC1CCCc2nc3cc(F)ccc3c(NCc3ccccc3C(F)(F)F)c21 (stereo not given)
115 to 118 °C | NC1=Nc2ccc(OC(F)(F)F)cc2CS1
143 to 145 °C | O=C1N(Cc2ccc(C(F)(F)F)o2)c2ccccc2C12COc1ccc(Br)cc12 (stereo not given)
39.5 to 41 °C | COc1cc([N+](=O)[O-])c2nccc(C)c2c1OCCCCCCCCc1ccccc1
91 to 93 °C | CCC1(CCCCl)C(=O)Nc2ccccc21 (stereo not given)
123 to 124 °C | COc1ccc(CCNC(=O)C(=O)O)cc1OC1CCCC1
189 to 190 °C | CC12CCC(O)CC1=CCC1C2CCC2(C)C(n3cnc4ccccc43)=CCC12 (stereo not given)
114 to 115 °C | CC(=O)Oc1ccc(S(=O)(=O)ON=C(C#N)c2cccs2)cc1
> 300 °C | CNc1nc(C2C(=O)Nc3ccccc32)c2cn(C3CCCC3)nc2n1 (stereo not given)
78 to 80 °C | NC1(C(=O)O)CC(O)C2C(C(=O)O)C21 (stereo not given)
94 to 95 °C | CC(C)(OC(=O)CCc1nc(-c2ccc(Cl)cc2)co1)c1ccccc1
179 °C | CCCCCCCCCCCCCCCCCCCC(=O)Nc1ccc(NC(=O)NS(=O)(=O)c2ccc3ccccc3c2)cc1
163 to 166 °C | Cc1cnc(CN2CCNC2=C[N+](=O)[O-])cn1
159 to 161 °C | Cn1cc(C(=O)c2ccc(F)cc2)cc1C(=O)c1ccccn1
141 to 142 °C | CC(=O)NCCc1cccc2ccc(OCCCO)cc12
131 to 133 °C | COc1ccc(CCCNS(=O)(=O)Cc2ccc3[nH]cc(CC#N)c3c2)cc1

melting point | SMILES
> 400 °C | O=c1nc(-c2ccsc2)c2c(=O)nc(-c3ccsc3)c1=2
232 to 233 °C | Cc1ccc(S(=O)(=O)NC(C)(C)CO)cc1NC(=O)c1cnn2c(C3CC3)cc(-c3ccc(C(F)(F)F)cc3)nc12
81 °C | Cc1cc(CSCCN)sc1CN1CCCCC1
205 to 208 °C | CNc1cc(Oc2ccc3c(C(=O)Nc4cccc(C(F)(F)F)c4)cncc3c2)ncn1
104 to 106 °C | O=C(COCc1csc(-c2ccc(F)cc2)n1)c1ccccc1
162 to 163 °C | CCOC(=O)COc1ccc(C(=O)Nc2ccccc2S(=O)(=O)c2ccccc2-c2nnn[nH]2)cc1
244 °C | CC(=O)Nc1ccc(-c2cnc3c(c2)N(Cc2cc(Cl)ccc2C(F)(F)F)CCN3)cc1
78 to 80 °C | CCC(CO)(CO)CBr
174 to 176 °C | CN(C)CC=Cc1ccc2c(c1)CCN2C(=O)c1ccc(-c2ccccc2)cc1
57 to 58 °C | Sc1c(Cl)ccc(Cl)c1S
40 to 41 °C | CCCCC(=O)c1ccc(Cl)c(Cl)c1
169 to 172 °C | CS(=O)(=O)c1ccc(SC2SCC(O)C(O)C2O)cc1 (stereo not given)
238 to 239 °C | O=C1c2ccccc2C(=O)N1CC(=O)N1c2ccccc2N(Cc2ccc3ccccc3c2)C(=O)C2CCCC21 (stereo not given)
99 to 100 °C | CC(C)NC(=O)Oc1ccc2c(N(C)CCN3CCOCC3)noc2c1
201 to 204 °C | CNS(=O)(=O)c1ccc(N2CCC(C(=O)OC)=Cc3cc(Br)ccc32)cc1
134 to 136 °C | O=C(O)c1cccc(NC(=O)C(CS)CCCc2ccccc2)c1 (stereo not given)
136 to 137 °C | CON=C(c1ccccc1COc1cc(C)ccc1C)C1OCCO1
235 to 237 °C | CNC(=O)c1ccccc1Nc1nc(Nc2cc3c(cc2OC)N(C)C(=O)OCC3)ncc1Cl
108 to 109 °C | O=C(CCCCCn1ccnn1)NC[C@@H]1CN2C(=O)C[C@H]2O1 (racemic)
250 to 251 °C | COc1ccc(C(=O)C2=C(O)C(=O)N(c3ccc(C)nn3)C2c2ccc(OC(F)(F)F)cc2)cn1 (stereo not given)

More lines, now with the values behind:

SMILES | melting point
COC1CN(C(C)CC(C(=O)N(C)C)(c2ccccc2)c2ccccc2)CCC1NC(=O)c1cccc(C(F)(F)F)c1 (stereo not given) | 198 °C
Cn1c(Br)nc2c([N+](=O)[O-])cc(Br)cc21 | 235 to 236 °C
CCCN(CCC)NNc1nc(C(=O)c2ccccc2O)nc(C(=O)c2ccccc2O)n1 | 254 to 255 °C
COc1ccc(C(C#N)C2(O)CCCCC2)cc1 (stereo not given) | 125 to 127 °C
Cn1cc([N+](=O)[O-])nc1C(=O)Cl | 126 to 128 °C
O=C(NC1CCCCC1)NS(=O)(=O)c1ccc(CCNC(=O)N2CC3CCCCC3C2=O)cc1 (stereo not given) | 139 to 140 °C
OCC1(c2ccccc2)COc2ccccc2O1 (stereo not given) | 114 to 116 °C
CCCCCCCCCCCCCC=Cc1cc(C(=O)O)c[nH]1 | 90 to 96 °C
CC(C)(C)[Si](C)(C)OC(CCCNCCc1ccccc1)COc1ccc2c(=O)cc(-c3ccccc3)oc2c1 (stereo not given) | 89 to 91 °C
Cc1c(Cl)cccc1S(=O)(=O)Nc1ccc2ncncc2c1 | > 270 °C
Oc1ccc2c(c1)C(c1ccc(OCCN3CCCCC3)cc1)c1c-2ccc2ccccc12 (stereo not given) | 180 to 181 °C
C#CCOC(=O)c1ccc(O)cc1 | 82 to 84 °C
Clc1nc2ccccc2c2occc12 | 120 to 122 °C
CCOC(=O)c1[nH]c(=O)c(CC(C)C)[n+]([O-])c1N | 179 to 181 °C
COc1cc2[nH]c(=O)c3c(c2cc1OC)CCN(CCN1CCCCC1)C3 | 185 to 188 °C
CCCCNc1nc2cc(C)nn2c2c1cnc1c2cnn1CC | 160 to 162 °C
O=c1[nH][nH]c(=O)n1-c1c(F)cc(F)cc1F | 221 to 222 °C
Cc1cc(-c2ccc(Cl)c(C)c2)nc(-c2cccc(-c3cccc(S(N)(=O)=O)c3)c2)n1 | 201 °C
O=C(Nc1cc(Cl)c([N+](=O)[O-])cc1O)c1ccc(Cl)c(Cl)c1 | 263 to 265 °C
CC(C)(C)C(O)C(=Cn1ccnc1)Oc1ccc(Cl)cc1 (stereo not given) | 141 to 143 °C

SMILES | melting point
NC(=O)CCCOc1ccc(C23CC4CC(CC(C4)C2)C3)cc1 | 176 to 177 °C
CN(C)c1ccc(C(c2cc(C(C)(C)C)c(O)c(C(C)(C)C)c2)N2CCCCC2)cc1 (stereo not given) | 184 to 185 °C
N#Cc1ccc(NC2CCN(Cc3cc(F)c(F)c(F)c3)CC2)nn1 | 185 °C
O=c1[nH]c2cccc(OCCNCc3ccccc3)c2[nH]1 | 132 to 135 °C
CCC1(CC)COP(=O)(Cc2ccc([N+](=O)[O-])cc2)OC1 | 159 to 160 °C
CN(Cc1ccc(NC(=O)C2=Cc3cc(-c4ccc(Cl)cc4)ccc3OCC2)cc1)C1CCOCC1 | 191 to 192 °C
CCCCC[C@H]1CC[C@H](c2ccc(-c3ccc(C#N)cc3)cc2)CC1 | 93 °C
O=C(O)c1cccc2c1Cc1c-2[nH]c2ccc(I)cc12 | 251 °C
CC(=O)Oc1ccc(CCC2CC(C)(OC(C)=O)CC(=O)O2)cc1 (stereo not given) | 72 to 75 °C
Cc1oc(-c2ccccc2)nc1COc1ccc(CCCO)cn1 | 89 to 90 °C
CC1(C)CC(NC(=O)ON(Cc2ccccc2)Cc2ccccc2)CC(C)(CNC(=O)ON(Cc2ccccc2)Cc2ccccc2)C1 (stereo not given) | 139 to 146 °C
CON(C)C(=O)Nc1ccc(OCCc2ccc(C)cn2)cc1 | 110 to 112 °C
O=C(c1ccccc1)N1CC2CSCC(C2)C1 | 95 to 96 °C
CC(c1cc(Cl)cc(Cl)c1O)c1cc(F)cc(Cc2cc(Cl)ccc2O)c1O (stereo not given) | 166 °C
O=C(Nc1ccccc1)Nc1cccc(-c2ccc(C(=O)N3CCN4CCC3CC4)o2)c1 | 125 to 130 °C
Cc1nc2cc(C(C)C(=O)O)ccc2o1 (stereo not given) | 115 to 117 °C
CCCCOc1ccc([N+](=O)[O-])c(CO)c1 | 47 to 49 °C
CCCCCCCCNc1ccc2c(C)nc(CC3OC(CO)C(O)C3O)n2n1 (stereo not given) | 105 to 106 °C
CN(C)CCC(=O)c1c(-c2ccccc2)[nH]c2ccccc12 | 136 to 138 °C
CCC(C)(C(=O)N(C)C)n1cc(C)c(-c2ccccc2)n1 (stereo not given) | 102 to 104 °C

SMILES | melting point
Fc1ccc(COc2cccnc2NC(=S)Nc2ccc(Cl)cc2)c(F)c1 | 154 to 156 °C
O=C1C2=C(CCCC2)C(=O)C1=C1C=CNC=C1 | 258 to 261 °C
O=C1c2c(Cl)cccc2-n2cnc(-c3noc(CN4CCCC4)n3)c2[C@@H]2CCN12 | 117 to 120 °C
COc1ccc(-c2coc3ccc(-c4nnc(SCc5cccc(OC)c5)o4)cc23)cc1 | 118 to 119 °C
O=C1C=C(c2c(-c3ccccc3)nn3ccccc23)CCN1 | 188 to 189 °C
O=C(NCc1ccc(F)cc1)c1sc2ccccc2c1Br | 120 to 125 °C
O=C(Nc1nccs1)c1nc(-c2cccc3ccccc23)[nH]c1-c1ccc(F)cc1 | 218 to 220 °C
O=C(N[C@H](CO)c1ccccc1)c1[nH]c2ccc(Cl)cc2c1S(=O)(=O)c1ccccc1 | 155 to 160 °C
CC(C)(CCCOc1cccc(C(F)(F)F)c1)C(=O)O | 96 to 97 °C
COCC(=O)Oc1cc(-n2c(=O)cc(C(F)(F)F)n(C)c2=O)c(F)cc1Cl | 101 to 103 °C
Nc1ncnc2c1c(-c1cccc(O)c1)nn2Cc1oc2ccccc2c(=O)c1-c1ccccc1 | 154 to 158 °C
CCSc1c2ccccc2c(C=O)c2ccccc12 | 74 to 75.5 °C
CC(O)c1ccc(-c2ccc(OCc3ccccc3)cc2)cc1 (single isomer, unassigned; (+)) | 158 to 159 °C
CCc1cc(COc2nn(Cc3ccccc3)cc2C=O)ccc1OCc1nc(-c2ccco2)oc1C | 128 to 129 °C
CSc1ccc(C=CC(=O)c2ccc(N(C)C)cc2)cc1 | 150 °C
CCOCc1nc2c(N)nc3cc(OCc4csc(C)n4)ccc3c2n1CC(C)(C)O | 200 to 201 °C
CCOC(=O)C1=C(C(=O)OCC)N(c2ccccc2)C(c2ccccc2)N(c2ccccc2)C1 (stereo not given) | 120 °C
COc1ccccc1Cc1ccc(Cl)nn1 | 63 °C
Cc1cccc(C(=O)NC2CN3CCC2CC3)c1C (racemic) | 160 to 161 °C
O=[N+]([O-])c1oc2c(CCO)cccc2c1-c1ccccc1 | 133 to 136 °C

— a melting point compilation (Tetko et al.; mined from patent text by program, amines drawn as free bases though some values may be those of a salt)
